BindingDB's records for doi:10.7270/Q2DB806H (University of Pittsburgh, 2007)

These compounds were tested against T1, Dual specificity protein phosphatase 6 (Rattus norvegicus, UniProt Q64346) (assay: MKP-3 phosphatase inhibitors, dose response, biochemical, probe assessment (AID 673)).
T1 sequence (Q64346 whole entry): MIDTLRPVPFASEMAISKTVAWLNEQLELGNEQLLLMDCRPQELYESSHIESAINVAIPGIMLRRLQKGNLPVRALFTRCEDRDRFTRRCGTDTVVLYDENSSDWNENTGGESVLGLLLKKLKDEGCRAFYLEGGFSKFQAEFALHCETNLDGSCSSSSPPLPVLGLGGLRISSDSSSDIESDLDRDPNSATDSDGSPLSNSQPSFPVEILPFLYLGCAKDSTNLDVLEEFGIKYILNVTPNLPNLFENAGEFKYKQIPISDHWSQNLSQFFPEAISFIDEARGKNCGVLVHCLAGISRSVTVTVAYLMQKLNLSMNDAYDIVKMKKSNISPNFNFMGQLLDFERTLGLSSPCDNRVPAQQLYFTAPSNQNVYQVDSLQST

Row | IC50 [µM] | SMILES
1 | > 50 | O=C(Nc1ccc2nc(-c3ccco3)c(-c3ccco3)nc2c1)N1CCCCCC1
2 | > 50 | Cc1ccc2c(c1C)NC(C(=O)O)C1CC=CC21 (stereo not drawn)
3 | > 50 | O=C(O)C1Nc2c(O)cccc2C2C=CCC12 (stereo not drawn)
4 | > 50 | [O-]/[N+](=C\c1ccncc1)c1ccccc1
5 | > 50 | COc1cccc2c(C)c(C(=O)O)[nH]c12
6 | > 50 | [O-]/[N+](=C\c1ccc(OC(F)F)cc1)c1ccccc1 [1-[4-(difluoromethoxy)phenyl]-N-phenylmethanimine oxide]
7 | 19.8 | O=C1Cc2ccccc2C(=O)N1CCc1ccccc1 [2-(2-phenylethyl)-4H-isoquinoline-1,3-dione]
8 | 2.74 | N#Cc1c(N)sc(=S)c2c1CCN(Cc1ccccc1)C2 [3-Amino-7-benzyl-1-thioxo-5,6,7,8-tetrahydro-1H-thiopyrano[3,4-c]pyridine-4-carbonitrile]
9 | 12.1 | Cc1ccccc1Nc1cc2ccccc2c(O)n1 [3-[(2-methylphenyl)amino]-2H-isoquinolin-1-one]
10 | > 50 | COc1ccc(Br)cc1C=c1sc2nc(-c3ccco3)nn2c1=O [5-[(5-bromanyl-2-methoxy-phenyl)methylidene]-2-(furan-2-yl)-[1,3]thiazolo[3,2-b][1,2,4]triazol-6-one]
11 | > 50 | CCOC(=O)C(C(=O)OCC)c1cc(Br)c2noc3c2c1C(=O)c1ccccc1-3 [MLS000038842]
12 | 12.6 | Oc1nc(Nc2ccccc2)cc2ccccc12 [MLS000043701]
13 | > 50 | O=C1C=Cc2ccccc2/C1=C/NC12CN3CCN(CN(C3)C1)C2 [MLS000071484]
14 | 19.8 | Cc1c(N=c2c(=O)c3ccccc3c2=O)c(=O)n(-c2ccccc2)n1C [MLS000105950]
15 | > 50 | CCOc1ccc2noc3c2c1C(=O)c1ccccc1-3 [MLS000106837]
16 | > 50 | COc1ccc2noc3c2c1C(=O)c1ccccc1-3 [MLS000106874]
17 | > 50 | c1ccc(CSc2nnc(-c3ccco3)c(-c3ccco3)n2)cc1 [MLS-0029114.0001]
18 | > 50 | Cc1ccc2c(c1)C1C=CCC1C(C(=O)O)N2 (stereo not drawn) [MLS-0067149.0001]
19 | 48.7 | O=C(NC1(O)C(=O)c2ccccc2C1=O)c1ccccc1 [N-(2-hydroxy-1,3-dioxo-2-indenyl)benzamide]
20 | > 50 | COc1cccc2c1NC(C(=O)O)C1CC=CC21 (stereo not drawn) [SMR000009698]
21 | > 50 | O=C(OC1CCCCC1)c1ccc2c(c1)C1C=CCC1C(C(=O)O)N2 (stereo not drawn) [SMR000019385]
22 | 3.71 | N#Cc1c(N2CCCC2)nc(N)c2c(N)nc(N3CCCC3)cc12 [SMR000061605]
23 | > 50 | Nc1cccc2cnccc12 [isoquinolin-5-amine]

Row | SMILES | IC50 [µM]
24 | Cn1ncnc2c(=O)n(C)c(=O)nc1-2 | 0.433
25 | O=C1C=Cc2ccccc2C1=O [1,2-dihydronaphthalene-1,2-dione] | > 50
26 | CCn1nc(-c2ccccc2)nc2c(=O)n(C)c(=O)nc1-2 [1-Ethyl-6-methyl-3-phenyl-1H-pyrimido[5,4-e][1,2,4]triazine-5,7-dione] | 0.615
27 | CCn1nc(-c2cccs2)nc2c(=O)n(C)c(=O)nc1-2 [1-ethyl-6-methyl-3-thiophen-2-yl-pyrimido[5,4-e][1,2,4]triazine-5,7-dione] | 0.629
28 | CC(=O)Nc1cc(OC(C)=O)c2nonc2c1OC(C)=O [Acetic acid 7-acetoxy-5-acetylamino-benzo[1,2,5]oxadiazol-4-yl ester] | > 50
